Measured values taken from patent US10662060B2, “Manufacture of lipid-based nanoparticles using a dual asymmetric centrifuge” (priority 2004, dated 2020).

What was measured:
[1] = Inclusion efficiency for bendamustine in VPG (ion exchanger separation of free drug); assay type: physicochemical; settings: direct inclusion in VPG by speed mixing, 3540 rpm 30 min; ± SD
Description: (§1) Within the context of the present invention, the “enclosure efficiency” is the ratio (percentage) of the amount of the measured substance (e.g., of an active substance) which is included in the lipid-based nanoparticles, associated to the nanoparticles or incorporated into the nanoparticles, to the total amount of the respective substance used for the formulation.
Into a 25 ml injection bottle (outer diameter: 36 mm), 1.0 g of the mixture of hydrogenated egg phosphatidylcholine and cholesterol (55/45 mole %) existing as a solid solution as well as 1.0 g of glass beads (diameter 1 mm) was weighed under sterile conditions. The bottle was flange-sealed. Through the septum, 1.5 ml of a Bendamustin® hydrochloride solution (containing 9.09 mg of bendamustine/ml; the solution was prepared by reconstitution from Bendamustin of Ribosepharm; thus, 0.9% NaCl solution was injected into the medicine bottle with the lyophilized medicament) was added. […] Samples of the VPGs containing bendamustine were taken, and the inclusion efficiency for bendamustine was determined to be 40.6±3.08% (SD) (separation of the free bendamustine: by ion exchanger, Moog et al., Cancer Chem Pharmacol 49: 356 (2002), bendamustine analytics: Maas, B. et al., Pharmazie 49: 775-777 (1994)). The mean size of the vesicles was determined by PCS to be 62.5±3.5 nm (SD) (n: 8).

[2] = Inclusion efficiency for gemcitabine in VPG; assay type: physicochemical; settings: for Inclusion efficiency: then passive loading 60° C. 2 hours
Description: as §1
Into a 25 ml injection bottle (outer diameter: 36 mm), 1.48 g of the mixture of hydrogenated egg phosphatidylcholine and cholesterol (55/45 mole %) existing as a solid solution as well as 3 g of glass beads (diameter 1 mm) was weighed under sterile conditions. The bottle was flange-sealed. Through the septum, 500 μl of a Gemzar® solution (containing 38.02 mg of gemcitabine/ml; Gemzar® is the name of the gemcitabine-containing medicament of the company Lilly, one injection bottle contains 200 mg of gemcitabine (lyophilized) and is reconstituted with 5 ml of 0.9% NaCl) as well as 2.22 g of 5% mannitol solution was added. The mixture was subjected to speed mixing at 3540 rpm for 20 minutes to form gemcitabine-containing VPG.
Into a 25 ml injection bottle, 3.7 g of VPG (660 mM lipid, mixture of hydrogenated egg phosphatidylcholine and cholesterol (55/45 mole %), existing as a solid solution) was charged, and the bottle was centrifuged briefly, so that a uniformly thick layer of VPG formed at the bottom of the vessel. To this layer, 500 μl of a Gemzar® solution was added (contains 38.02 mg of gemcitabine/ml; Gemzar® is the name of the gemcitabine-containing medicament of the company Lilly, one injection bottle contains 200 mg of gemcitabine (lyophilized) and is reconstituted with 5.0 ml of 0.9% NaCl). […]
Subsequently, the VPG-gemcitabine mixture as well as a comparative sample in which gemcitabine was incorporated into the VPG by two shaking steps for 10 and 5 minutes, respectively, with an incubation break for 1 hour between, incubated at 60° C. for 2 hours for passive loading, the VPG was subsequently redispersed, and the inclusion efficiency for gemcitabine was determined.

[3] = empty VPG by high-pressure homogenization, gemcitabine incorporated by passive loading (EP 1 087 752); cited from earlier work
[4] = Inclusion efficiency for trypan blue in liposomes (absorption spectroscopy of supernatant); assay type: physicochemical; settings: EPC3/cholesterol 55/45; 3540 rpm 10 min
Description: Within the context of the present invention, the “enclosure efficiency” is the ratio (percentage) of the amount of the measured substance (e.g., of an active substance) which is included in the lipid-based nanoparticles, associated to the nanoparticles or incorporated into the nanoparticles, to the total amount of the respective substance used for the formulation. Into two glass vials (diameter 10 mm), 100 mg each of glass beads (diameter 1 mm) and 50 mg each of the mixture of hydrogenated egg phosphatidylcholine and cholesterol (55/45 mole %) existing as a solid solution was weighed. Into one vial, 75 μl of a trypan blue solution (1000 μl of commercially available trypan blue solution (0.4%) plus 30 ml of 25% ammonia solution) was pipetted. Into the second vial, 75 μl of 0.9% NaCl solution was added. The closed vials were subjected to speed mixing at 3540 rpm for 10 minutes each. The liposome gel loaded with trypan blue solution was redispersed with 250 μl of NaCl solution. The liposome gel prepared with saline only was redispersed with 175 μl of NaCl solution plus 75 μl of trypan blue solution. […] In the supernatant, the trypan blue concentration was subsequently determined by absorption spectroscopy, and the inclusion efficiency was calculated. […]

[5] = Inclusion efficiency for RNA-Cy3 in liposomes (fluorescence spectroscopy of supernatant); assay type: physicochemical; settings: 1 μM RNA-Cy3, 3540 rpm 10 min
Description: as §1
Into two glass vials (diameter 10 mm), 100 mg each of glass beads (diameter 1 mm) and 50 mg each of the mixture of hydrogenated egg phosphatidylcholine and cholesterol (55/45 mole %) existing as a solid solution was weighed. Into one vial, 75 μl of a 1 μM RNA-Cy3 solution (RNA: 27mer; 5′-GGA GCU CGC U T**C GGC GAG GUC GUG CCA-3′; T**=thymidine-C6-amino-NHS-Cy3; Cy3: fluorescence dye; Qiagen) was pipetted. Into the second vial, 75 μl of NaCl solution was added. The closed vials were subjected to speed mixing at 3540 rpm for 10 minutes each. The liposome gel loaded with RNA-Cy3 solution was redispersed with 250 μl of NaCl solution. […] In the supernatant, the relative concentrations of fluorescence-labeled RNA were subsequently determined by fluorescence spectroscopy (em: 565, ex; 515 nm), and the inclusion efficiency for RNA-Cy3 was calculated by dividing the values by one another (60.1%). The mean size of the redispersed vesicles was determined by means of PCS to be 127.8 nm. […]

[6] = Mean size of liposomes / lipid-based nanoparticles by photon correlation spectroscopy (PCS); assay type: physicochemical

In the case of `Cn1c(CCCC(=O)O)nc2cc(N(CCCl)CCCl)ccc21` [bendamustine], the “inclusion efficiency for bendamustine” value [1] is reported as 40.6±3.08%.
For `Nc1ccn([C@@H]2O[C@H](CO)[C@@H](O)C2(F)F)c(=O)n1` [gemcitabine], the “inclusion efficiency for gemcitabine” value ([2]; direct inclusion in VPG by speed mixing, 3540 rpm 20 min) was 80.7%, the Inclusion efficiency ([2]; gemcitabine incorporated into prefabricated VPG by shaking (10 and 5 min)) was 47% and the Inclusion efficiency ([2]; gemcitabine incorporated into prefabricated VPG by speed mixing (0.5 min)) was 44%. The “inclusion efficiency for passive loading” value [3] was 43-47%.
For `Cc1cc(-c2ccc(/N=N/c3c(S(=O)(=O)O)cc4cc(S(=O)(=O)O)cc(N)c4c3O)c(C)c2)ccc1/N=N/c1c(S(=O)(=O)O)cc2cc(S(=O)(=O)O)cc(N)c2c1O` [trypan blue], the “inclusion efficiency for trypan blue in liposomes by speed mixing” value [4] was 51%.
With “RNA-Cy3: fluorescence-labeled RNA 27mer 5′-GGA GCU CGC U T**C GGC GAG GUC GUG CCA-3′, T**=thymidine-C6-amino-NHS-Cy3 (Qiagen) (chain 1 GGAGCUCGCUT; chain 2 CGGCGAGGUCGUGCCA; Cy3 label on thymidine-C6-amino, chemistry not fully specified)” the “inclusion efficiency for RNA-Cy3” value ([5]; negatively charged liposomes (hydrogenated egg PC/cholesterol/DPPG 46/33/20)) was 82.9%, the “inclusion efficiency for RNA-Cy3” value ([5]; neutral liposomes (hydrogenated egg PC/cholesterol 55/45)) was 60.1% and the “mean size of the redispersed vesicles” value ([6]; RNA-Cy3-loaded negatively charged liposomes (hydrogenated egg PC/cholesterol/DPPG 46/33/20)) was 238.1 nm. The “mean size of the redispersed vesicles” value ([6]; RNA-Cy3-loaded neutral liposomes (hydrogenated egg PC/cholesterol 55/45)) was 127.8 nm.
